Laboratory results reported in article PMC9856672, “SGC-CAMKK2-1: A Chemical Probe for CAMKK2” (Cells, 2023).

What was measured:
NEK6 = biological target: T1, NEK6 (Homo sapiens, UniProt Q9HC98); assay: KINOMEscan 1 μM, NEK6; assay type: binding; conditions: 1000 nM; Entrez NEK6; read-out: Percent Control
T1 construct: purchased Eurofins DiscoverX KINOMEscan
Text: (§1) Supplement cells-12-00287-s001.zip/File S2. KinomeScan data for the CAMKK2 probe and negative control.xlsx, sheet "SGC-CAMKK2-1" | column: Percent Control

DAPK1 = biological target: T2, DAPK1 (Homo sapiens, UniProt P53355); assay: KINOMEscan 1 μM, DAPK1; assay type: binding; conditions: 1000 nM; Entrez DAPK1; read-out: Percent Control
T2 construct: purchased Eurofins DiscoverX KINOMEscan
Text: as §1

AXL = biological target: T3, AXL (Homo sapiens, UniProt P30530); assay: KINOMEscan 1 μM, AXL; assay type: binding; conditions: 1000 nM; Entrez AXL; read-out: Percent Control
T3 construct: purchased Eurofins DiscoverX KINOMEscan
T3 sequence (P30530 26-894): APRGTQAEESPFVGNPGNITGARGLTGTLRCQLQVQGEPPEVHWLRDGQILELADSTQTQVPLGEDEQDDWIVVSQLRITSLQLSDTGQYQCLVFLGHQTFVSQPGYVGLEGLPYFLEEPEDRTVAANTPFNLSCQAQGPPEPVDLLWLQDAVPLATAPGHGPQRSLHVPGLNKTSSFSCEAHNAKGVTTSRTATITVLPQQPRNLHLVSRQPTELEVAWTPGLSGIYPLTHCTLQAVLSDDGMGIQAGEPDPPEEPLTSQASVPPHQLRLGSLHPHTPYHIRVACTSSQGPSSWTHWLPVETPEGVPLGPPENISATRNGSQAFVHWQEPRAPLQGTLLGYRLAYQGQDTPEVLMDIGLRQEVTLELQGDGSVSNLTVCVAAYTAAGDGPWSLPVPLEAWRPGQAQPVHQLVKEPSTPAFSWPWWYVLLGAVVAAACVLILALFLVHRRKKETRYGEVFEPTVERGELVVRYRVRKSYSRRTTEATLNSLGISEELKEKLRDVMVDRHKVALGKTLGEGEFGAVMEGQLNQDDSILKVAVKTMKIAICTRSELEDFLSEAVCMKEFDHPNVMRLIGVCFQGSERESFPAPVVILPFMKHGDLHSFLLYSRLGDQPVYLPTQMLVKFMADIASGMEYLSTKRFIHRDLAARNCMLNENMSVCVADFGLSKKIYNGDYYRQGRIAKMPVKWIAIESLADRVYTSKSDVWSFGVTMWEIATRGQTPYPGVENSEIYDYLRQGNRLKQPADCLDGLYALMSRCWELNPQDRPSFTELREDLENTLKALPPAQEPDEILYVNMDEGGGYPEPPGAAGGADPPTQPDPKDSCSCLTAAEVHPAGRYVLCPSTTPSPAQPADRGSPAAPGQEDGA
Text: as §1

DYRK1B = biological target: T4, DYRK1B (Homo sapiens, UniProt Q9Y463); assay: KINOMEscan 1 μM, DYRK1B; assay type: binding; conditions: 1000 nM; Entrez DYRK1B; read-out: Percent Control
T4 construct: purchased Eurofins DiscoverX KINOMEscan
Text: as §1

JNK2 = biological target: T5, JNK2 (Homo sapiens, UniProt P45984); assay: KINOMEscan 1 μM, JNK2; assay type: binding; conditions: 1000 nM; Entrez MAPK9; read-out: Percent Control
T5 construct: purchased Eurofins DiscoverX KINOMEscan
Text: as §1

TEC = biological target: T6, TEC (Homo sapiens, UniProt P42680); assay: KINOMEscan 1 μM, TEC; assay type: binding; conditions: 1000 nM; Entrez TEC; read-out: Percent Control
T6 construct: purchased Eurofins DiscoverX KINOMEscan
Text: as §1

PHKG1 = biological target: T7, PHKG1 (Homo sapiens, UniProt Q16816); assay: KINOMEscan 1 μM, PHKG1; assay type: binding; conditions: 1000 nM; Entrez PHKG1; read-out: Percent Control
T7 construct: purchased Eurofins DiscoverX KINOMEscan
Text: as §1

RAF1 = biological target: T8, RAF1 (Homo sapiens, UniProt P04049); assay: DiscoverX KINOMEscan binding assay at 1 μM, RAF1; conditions: Compound Concentration 1000 nM, read-out: Percent Control
T8 construct: purchased Eurofins DiscoverX KINOMEscan
T8 sequence (P04049 whole entry): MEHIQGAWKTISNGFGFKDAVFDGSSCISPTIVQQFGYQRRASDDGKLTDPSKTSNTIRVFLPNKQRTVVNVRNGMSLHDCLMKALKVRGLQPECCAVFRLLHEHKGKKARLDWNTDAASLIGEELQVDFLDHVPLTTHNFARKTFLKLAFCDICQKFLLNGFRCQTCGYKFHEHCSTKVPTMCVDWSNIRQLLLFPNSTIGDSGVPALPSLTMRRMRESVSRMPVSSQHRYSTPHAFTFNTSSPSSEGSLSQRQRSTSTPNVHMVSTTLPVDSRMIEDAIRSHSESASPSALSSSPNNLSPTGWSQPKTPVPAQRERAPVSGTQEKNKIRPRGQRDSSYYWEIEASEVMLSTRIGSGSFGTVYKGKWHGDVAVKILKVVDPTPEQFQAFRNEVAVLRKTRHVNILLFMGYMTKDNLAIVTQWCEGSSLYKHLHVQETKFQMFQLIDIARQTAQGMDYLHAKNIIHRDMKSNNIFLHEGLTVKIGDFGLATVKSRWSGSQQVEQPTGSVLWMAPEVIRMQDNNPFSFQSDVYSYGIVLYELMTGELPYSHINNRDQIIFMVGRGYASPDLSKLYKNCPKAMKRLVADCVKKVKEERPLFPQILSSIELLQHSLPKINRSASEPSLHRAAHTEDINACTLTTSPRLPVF
Text: as §1

PFTK1 = biological target: T9, PFTK1 (Homo sapiens, UniProt O94921); assay: DiscoverX KINOMEscan binding assay at 1 μM, PFTK1; conditions: PFTK1 (CDK14); Compound Concentration 1000 nM; read-out: Percent Control
T9 construct: purchased Eurofins DiscoverX KINOMEscan
T9 sequence (O94921 whole entry): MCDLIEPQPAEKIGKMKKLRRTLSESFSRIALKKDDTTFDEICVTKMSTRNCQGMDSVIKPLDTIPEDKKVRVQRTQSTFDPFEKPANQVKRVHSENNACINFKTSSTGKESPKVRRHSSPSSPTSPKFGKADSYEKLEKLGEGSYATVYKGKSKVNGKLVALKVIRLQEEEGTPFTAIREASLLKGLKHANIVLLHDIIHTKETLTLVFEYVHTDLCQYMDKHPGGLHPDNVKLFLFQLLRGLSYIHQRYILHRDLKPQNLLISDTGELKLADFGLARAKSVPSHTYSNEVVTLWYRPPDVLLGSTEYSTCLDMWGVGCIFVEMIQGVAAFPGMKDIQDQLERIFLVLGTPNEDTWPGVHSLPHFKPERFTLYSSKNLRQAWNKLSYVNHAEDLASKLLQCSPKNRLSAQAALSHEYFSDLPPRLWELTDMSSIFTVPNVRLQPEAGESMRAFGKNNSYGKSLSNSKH
Text: as §1

PKN2 = biological target: T10, PKN2 (Homo sapiens, UniProt Q16513); assay: DiscoverX KINOMEscan binding assay at 1 μM, PKN2; conditions: Compound Concentration 1000 nM, read-out: Percent Control
T10 construct: purchased Eurofins DiscoverX KINOMEscan
Text: as §1

CHEK1 [1] = biological target: T11, CHEK1 (Homo sapiens, UniProt O14757); assay: KINOMEscan 1 μM, CHEK1; assay type: binding; conditions: 1000 nM; Entrez CHEK1; read-out: Percent Control
T11 construct: purchased Eurofins DiscoverX KINOMEscan
T11 sequence (O14757 whole entry): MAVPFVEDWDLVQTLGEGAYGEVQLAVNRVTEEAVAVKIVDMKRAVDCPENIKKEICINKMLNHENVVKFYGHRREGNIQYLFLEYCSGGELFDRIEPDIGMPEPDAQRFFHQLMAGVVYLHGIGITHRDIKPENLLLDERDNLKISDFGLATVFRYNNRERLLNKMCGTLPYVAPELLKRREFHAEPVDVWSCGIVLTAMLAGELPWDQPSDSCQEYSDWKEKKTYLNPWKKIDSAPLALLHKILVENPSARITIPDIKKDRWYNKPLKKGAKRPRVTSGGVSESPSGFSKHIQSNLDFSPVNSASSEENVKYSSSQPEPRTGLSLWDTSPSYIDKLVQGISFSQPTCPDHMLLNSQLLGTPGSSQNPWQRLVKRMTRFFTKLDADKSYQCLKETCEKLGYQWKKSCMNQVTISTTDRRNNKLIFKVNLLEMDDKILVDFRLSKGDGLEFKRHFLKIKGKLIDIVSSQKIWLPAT
Text: as §1

FAK = biological target: T12, FAK (Homo sapiens, UniProt Q05397); assay: KINOMEscan 1 μM, FAK; assay type: binding; conditions: 1000 nM; Entrez PTK2; read-out: Percent Control
T12 construct: purchased Eurofins DiscoverX KINOMEscan
Text: as §1

SRPK1 = biological target: T13, SRPK1 (Homo sapiens, UniProt Q96SB4); assay: KINOMEscan 1 μM, SRPK1; assay type: binding; conditions: 1000 nM; Entrez SRPK1; read-out: Percent Control
T13 construct: purchased Eurofins DiscoverX KINOMEscan
T13 sequence (Q96SB4 whole entry): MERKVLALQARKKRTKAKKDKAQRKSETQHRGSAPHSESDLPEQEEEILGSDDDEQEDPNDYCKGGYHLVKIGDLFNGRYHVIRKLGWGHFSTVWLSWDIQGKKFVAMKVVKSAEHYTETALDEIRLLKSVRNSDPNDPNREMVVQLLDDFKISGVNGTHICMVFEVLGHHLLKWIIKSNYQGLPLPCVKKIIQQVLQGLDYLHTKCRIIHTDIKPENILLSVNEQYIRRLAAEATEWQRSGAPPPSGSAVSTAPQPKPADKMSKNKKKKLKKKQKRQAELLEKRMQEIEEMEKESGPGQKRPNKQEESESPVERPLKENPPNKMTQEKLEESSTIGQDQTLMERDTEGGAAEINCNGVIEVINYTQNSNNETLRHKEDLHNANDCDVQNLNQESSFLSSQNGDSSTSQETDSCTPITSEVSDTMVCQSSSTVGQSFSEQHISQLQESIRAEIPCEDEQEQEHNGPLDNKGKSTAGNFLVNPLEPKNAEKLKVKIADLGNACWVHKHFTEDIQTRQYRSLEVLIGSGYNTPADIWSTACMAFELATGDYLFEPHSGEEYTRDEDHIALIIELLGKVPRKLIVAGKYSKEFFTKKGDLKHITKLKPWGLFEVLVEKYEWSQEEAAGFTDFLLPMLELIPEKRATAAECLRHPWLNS
Text: as §1

ACVR2A = biological target: T14, ACVR2A (Homo sapiens, UniProt P27037); assay: KINOMEscan at 1 μM, ACVR2A; assay type: binding; conditions: 1000 nM, read-out: Percent Control
T14 construct: purchased Eurofins DiscoverX KINOMEscan
Text: (§2) Supplement cells-12-00287-s001.zip/File S2. KinomeScan data for the CAMKK2 probe and negative control.xlsx, sheet "SGC-CAMKK2-1N" | column: Percent Control

TRKA = biological target: T15, TRKA (Homo sapiens, UniProt P04629); assay: KINOMEscan at 1 μM, TRKA; assay type: binding; conditions: 1000 nM, read-out: Percent Control
T15 construct: purchased Eurofins DiscoverX KINOMEscan
T15 sequence (P04629 33-796): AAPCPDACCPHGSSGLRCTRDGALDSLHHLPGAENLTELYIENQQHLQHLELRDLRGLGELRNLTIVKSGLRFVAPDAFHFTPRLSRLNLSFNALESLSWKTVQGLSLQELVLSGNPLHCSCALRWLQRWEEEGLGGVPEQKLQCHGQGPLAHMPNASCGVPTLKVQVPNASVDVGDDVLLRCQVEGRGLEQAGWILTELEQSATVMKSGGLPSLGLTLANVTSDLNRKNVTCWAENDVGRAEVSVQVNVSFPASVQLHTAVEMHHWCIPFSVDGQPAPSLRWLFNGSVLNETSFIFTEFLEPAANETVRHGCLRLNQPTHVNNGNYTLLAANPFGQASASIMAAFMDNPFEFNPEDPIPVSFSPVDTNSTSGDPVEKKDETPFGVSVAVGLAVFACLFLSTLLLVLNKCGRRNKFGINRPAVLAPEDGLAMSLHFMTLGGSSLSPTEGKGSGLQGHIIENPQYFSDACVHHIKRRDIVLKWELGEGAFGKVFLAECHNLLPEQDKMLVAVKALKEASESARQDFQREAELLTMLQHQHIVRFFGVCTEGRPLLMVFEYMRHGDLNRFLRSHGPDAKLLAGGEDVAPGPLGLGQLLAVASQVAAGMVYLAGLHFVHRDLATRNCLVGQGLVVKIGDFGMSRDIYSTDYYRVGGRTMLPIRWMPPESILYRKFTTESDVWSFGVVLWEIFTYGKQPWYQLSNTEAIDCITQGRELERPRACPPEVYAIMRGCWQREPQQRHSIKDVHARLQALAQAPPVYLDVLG
Text: as §2

ADCK4 = biological target: T16, ADCK4 (Homo sapiens, UniProt Q96D53); assay: KINOMEscan at 1 μM, ADCK4; assay type: binding; conditions: 1000 nM, read-out: Percent Control
T16 construct: purchased Eurofins DiscoverX KINOMEscan
Text: as §2

ROCK2 = biological target: T17, ROCK2 (Homo sapiens, UniProt O75116); assay: KINOMEscan at 1 μM, ROCK2; assay type: binding; conditions: 1000 nM, read-out: Percent Control
T17 construct: purchased Eurofins DiscoverX KINOMEscan
Text: as §2

[2] = biological target: T18, RPS6KA5(Kin.Dom.2-C-terminal) (Homo sapiens, UniProt O75582); assay: KINOMEscan at 1 μM, RPS6KA5(Kin.Dom.2-C-terminal); assay type: binding; conditions: 1000 nM, read-out: Percent Control
T18 construct: RPS6KA5(Kin.Dom.2-C-terminal); purchased Eurofins DiscoverX KINOMEscan
Text: as §2

CDK7 = biological target: T19, CDK7 (Homo sapiens, UniProt P50613); assay: KINOMEscan at 1 μM, CDK7; assay type: binding; conditions: 1000 nM, read-out: Percent Control
T19 construct: purchased Eurofins DiscoverX KINOMEscan
Text: as §2

MRCKB = biological target: T20, MRCKB (Homo sapiens, UniProt Q9Y5S2); assay: KINOMEscan binding assay at 1 μM, MRCKB; conditions: Compound Concentration 1000 nM; read-out: Percent Control
T20 construct: purchased Eurofins DiscoverX KINOMEscan
Text: as §2

SGK = biological target: T21, SGK (Homo sapiens, UniProt O00141); assay: KINOMEscan at 1 μM, SGK; assay type: binding; conditions: 1000 nM, read-out: Percent Control
T21 construct: purchased Eurofins DiscoverX KINOMEscan
Text: as §2

CSF1R = biological target: T22, CSF1R (Homo sapiens, UniProt P07333); assay: KINOMEscan at 1 μM, CSF1R; assay type: binding; conditions: 1000 nM, read-out: Percent Control
T22 construct: purchased Eurofins DiscoverX KINOMEscan
Text: as §2

FLT3(ITD,D835V) = assay: KINOMEscan binding assay at 1 μM, FLT3(ITD,D835V); parameters: species or system human; conditions: Compound Concentration 1000 nM
Text: as §2

PRKR = biological target: T23, PRKR (Homo sapiens, UniProt P19525); assay: KINOMEscan at 1 μM, PRKR; assay type: binding; conditions: 1000 nM, read-out: Percent Control
T23 construct: purchased Eurofins DiscoverX KINOMEscan
Text: as §2

ERK4 = biological target: T24, ERK4 (Homo sapiens, UniProt P31152); assay: KINOMEscan at 1 μM, ERK4; assay type: binding; conditions: 1000 nM, read-out: Percent Control
T24 construct: purchased Eurofins DiscoverX KINOMEscan
Text: as §2

INSR = biological target: T25, INSR (Homo sapiens, UniProt P06213); assay: KINOMEscan at 1 μM, INSR; assay type: binding; conditions: 1000 nM, read-out: Percent Control
T25 construct: purchased Eurofins DiscoverX KINOMEscan
Text: as §2

SRMS = biological target: T26, SRMS (Homo sapiens, UniProt Q9H3Y6); assay: KINOMEscan at 1 μM, SRMS; assay type: binding; conditions: 1000 nM, read-out: Percent Control
T26 construct: purchased Eurofins DiscoverX KINOMEscan
Text: as §2

CHEK1 [3] = biological target: T11, CHEK1; assay: KINOMEscan at 1 μM, CHEK1; assay type: binding; conditions: 1000 nM, read-out: Percent Control
Text: as §2

JNK1 = biological target: T27, JNK1 (Homo sapiens, UniProt P45983); assay: KINOMEscan at 1 μM, JNK1; assay type: binding; conditions: 1000 nM, read-out: Percent Control
T27 construct: purchased Eurofins DiscoverX KINOMEscan
T27 sequence (P45983 whole entry): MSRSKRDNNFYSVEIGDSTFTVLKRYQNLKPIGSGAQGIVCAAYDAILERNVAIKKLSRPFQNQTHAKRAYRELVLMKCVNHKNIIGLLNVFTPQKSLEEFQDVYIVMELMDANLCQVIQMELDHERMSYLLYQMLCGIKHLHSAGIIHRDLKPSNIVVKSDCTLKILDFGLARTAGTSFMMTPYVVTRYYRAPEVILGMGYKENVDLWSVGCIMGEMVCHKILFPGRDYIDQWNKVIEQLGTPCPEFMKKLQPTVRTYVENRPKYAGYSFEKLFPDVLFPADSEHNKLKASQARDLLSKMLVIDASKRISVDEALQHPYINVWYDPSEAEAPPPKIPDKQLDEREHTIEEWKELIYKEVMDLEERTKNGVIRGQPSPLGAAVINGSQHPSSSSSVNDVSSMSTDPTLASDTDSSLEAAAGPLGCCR
Text: as §2

RIPK2 = biological target: T28, RIPK2 (Homo sapiens, UniProt O43353); assay: KINOMEscan at 1 μM, RIPK2; assay type: binding; conditions: 1000 nM, read-out: Percent Control
T28 construct: purchased Eurofins DiscoverX KINOMEscan
Text: as §2

[4] = biological target: T29, JAK2(JH1domain-catalytic) (Homo sapiens, UniProt O60674); assay: KINOMEscan at 1 μM, JAK2(JH1domain-catalytic); assay type: binding; conditions: 1000 nM, read-out: Percent Control
T29 construct: JAK2(JH1domain-catalytic); purchased Eurofins DiscoverX KINOMEscan
T29 sequence (O60674 840-1132 limits assumed): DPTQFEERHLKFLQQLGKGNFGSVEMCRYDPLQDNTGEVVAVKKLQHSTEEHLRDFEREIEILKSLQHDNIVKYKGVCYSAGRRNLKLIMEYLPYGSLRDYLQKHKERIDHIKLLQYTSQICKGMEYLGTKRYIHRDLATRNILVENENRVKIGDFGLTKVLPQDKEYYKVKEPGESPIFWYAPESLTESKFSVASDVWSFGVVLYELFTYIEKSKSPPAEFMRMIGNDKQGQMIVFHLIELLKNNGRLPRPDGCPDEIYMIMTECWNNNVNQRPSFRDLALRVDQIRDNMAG
Text: as §2

[5] = biological target: T30, ABL1(H396P)-phosphorylated (Homo sapiens, UniProt P00519, H396P); assay: KINOMEscan at 1 μM, ABL1(H396P)-phosphorylated; assay type: binding; conditions: 1000 nM, read-out: Percent Control
T30 construct: purchased Eurofins DiscoverX KINOMEscan
Text: as §2

PRP4 = biological target: T31, PRP4 (Homo sapiens, UniProt Q13523); assay: KINOMEscan binding assay at 1 μM, PRP4; conditions: Compound Concentration 1000 nM; read-out: Percent Control
T31 construct: purchased Eurofins DiscoverX KINOMEscan
Text: as §2

INSRR = biological target: T32, INSRR (Homo sapiens, UniProt P14616); assay: KINOMEscan at 1 μM, INSRR; assay type: binding; conditions: 1000 nM, read-out: Percent Control
T32 construct: purchased Eurofins DiscoverX KINOMEscan
Text: as §2

BMX = biological target: T33, BMX (Homo sapiens, UniProt P51813); assay: KINOMEscan at 1 μM, BMX; assay type: binding; conditions: 1000 nM, read-out: Percent Control
T33 construct: purchased Eurofins DiscoverX KINOMEscan
Text: as §2

T1 sequence (Q9HC98 whole entry): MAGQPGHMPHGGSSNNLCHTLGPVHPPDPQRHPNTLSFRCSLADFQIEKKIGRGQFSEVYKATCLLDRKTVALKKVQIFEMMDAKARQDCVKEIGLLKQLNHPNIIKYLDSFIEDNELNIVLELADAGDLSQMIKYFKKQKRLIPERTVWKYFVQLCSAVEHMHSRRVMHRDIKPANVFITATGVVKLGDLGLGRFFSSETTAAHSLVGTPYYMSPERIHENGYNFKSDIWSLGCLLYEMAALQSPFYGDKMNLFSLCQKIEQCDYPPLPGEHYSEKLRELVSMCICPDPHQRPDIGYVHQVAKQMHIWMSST

Cc1cccc(-c2cnc3occ(-c4ccc(C(=O)O)c(C5CCCC5)c4)c3c2)c1 [SGC-CAMKK2-1 (YL-36)]
remaining binding at 1 µM (NEK6): 100%
remaining binding at 1 µM (DAPK1): 100%
remaining binding at 1 µM (AXL): 100%
remaining binding at 1 µM (DYRK1B): 100%
remaining binding at 1 µM (JNK2): 100%
remaining binding at 1 µM (TEC): 95%
remaining binding at 1 µM (PHKG1): 80%
remaining binding at 1 µM (RAF1): 100%
remaining binding at 1 µM (PFTK1): 100%
remaining binding at 1 µM (PKN2): 100%
remaining binding at 1 µM (CHEK1 [1]): 93%
remaining binding at 1 µM (FAK): 92%
remaining binding at 1 µM (SRPK1): 80%

O=C(O)c1ccc(-c2coc3ncc(-c4ccccc4)cc23)cc1Cl [SGC-CAMKK2-1N (UNC-YL-83)]
remaining binding at 1 µM (ACVR2A): 72%
remaining binding at 1 µM (TRKA): 38%
remaining binding at 1 µM (ADCK4): 100%
remaining binding at 1 µM (ROCK2): 70%
remaining binding at 1 µM [2]: 82%
remaining binding at 1 µM (CDK7): 66%
remaining binding at 1 µM (MRCKB): 100%
remaining binding at 1 µM (SGK): 79%
remaining binding at 1 µM (CSF1R): 100%
Percent Control (FLT3(ITD,D835V)): 100%
remaining binding at 1 µM (PRKR): 90%
remaining binding at 1 µM (ERK4): 58%
remaining binding at 1 µM (INSR): 93%
remaining binding at 1 µM (SRMS): 79%
remaining binding at 1 µM (CHEK1 [3]): 91%
remaining binding at 1 µM (JNK1): 81%
remaining binding at 1 µM (RIPK2): 99%
remaining binding at 1 µM [4]: 80%
remaining binding at 1 µM [5]: 74%
remaining binding at 1 µM (PRP4): 100%
remaining binding at 1 µM (INSRR): 96%
remaining binding at 1 µM (BMX): 77%
